{"source": "paper PMC7896091", "about": "“Synthesis of novel phytol-derived γ-butyrolactones and evaluation of their biological activity” (Scientific Reports, 2021)", "key": {"albino mice": {"test_system": "albino mice", "design": "method as in PMID 20141879", "details": "cited from earlier work"}, "rats": {"test_system": "rats", "design": "method as in PMID 20141879", "details": "cited from earlier work"}, "[1]": {"test_system": "caspase-3/7 in MV4-11 cells", "assay": "Caspase-3/7 activity determination (Ac-DEVD-ACC substrate)", "format": "cell-based, human", "details": "MV4-11, 75 µM, 72 h", "description": "Caspase-3/7 activity determination was performed according to the protocol previously described. The MV4-11 cells were seeded at the density of 1 × 10^5 cells/mL of culture medium on 24-well plates (Sarstedt, Germany) to the final volume of 2 mL. The cells were exposed to the test compounds at concentrations 75 μM or campthothecin (0.05 μg/mL) as a positive control, for 72 h. After 72 h of the incubation, the cells were collected and centrifuged (5 min., 4 °C, 250×g). Cells were suspended in 50 µL of ice-cold lysis buffer (50 mM HEPES, 10% (w/v) sucrose, 150 mM NaCl, 2 mM EDTA, 1% (v/v) Triton X-100, pH 7.3, IIET, Poland) and incubated 30 min. at 4 °C. After the incubation, 40 µL of each sample was transferred to a white, 96-well plate (Corning, USA) containing 160 µL of the reaction buffer (20 mM HEPES, 10% sucrose, 100 mM NaCl, 1 mM EDTA, 10 mM DTT, 0.02% Trition X-100, pH 7.3) (IIET, Wroclaw, Poland) with 9 µM Ac-DEVD-ACC fluorogenic substrate (λex = 360 nm, λem = 460 nm). The fluorescence increase correlated with the caspase-3/7 level was continuously recorded at 37 °C for 120 min using a Biotek Synergy H4 (Biokom, Warsaw, Poland). Compounds were tested in duplicates in single experiment and each experiment was repeated at least three times independently. Results were normalized to the number of cells in each well and are reported as mean relative caspase-3/7 activity compared to untreated control sample ± SD."}}}
{"molecule": "3,7,11,15-tetramethylhexadec-2-en-1-ol [Phytol (1), reference compound]", "values": [{"measurement": "Lethal dose (LD50)", "setting": "albino mice", "value": "above 5 g/kg"}, {"measurement": "Lethal dose (LD50)", "setting": "rats", "value": "> 10000", "unit": "mg/kg"}]}
{"molecule": "C=CC(C)(CCCC(C)CCCC(C)CCCC(C)C)CC(=O)O", "note": "(stereo not shown) [compound 3, 3,7,11,15-tetramethyl-3-vinylhexadecanoic acid]", "values": [{"measurement": "Increase of caspase-3/7 activity compared to the control", "setting": "[1]", "value": 3, "unit": "times"}]}
{"molecule": "CC(C)CCCC(C)CCCC(C)CCC[C@]1(C)CC(=O)O[C@@H]1CCl", "note": "(stereo in doubt) [compound 6, trans-5-Chloromethyl-4-methyl-4-(4′,8′,12′-trimethyltridecyl)dihydrofuran-2-one]", "values": [{"measurement": "Increase of caspase-3/7 activity compared to the control", "setting": "[1]", "value": "about 1.5 times"}]}
